Reference: patent US20250206751A1, “HETEROCYCLIC COMPOUND FOR INDUCING DEGRADATION OF G12D MUTANT KRAS PROTEIN” (Astellas Pharma Inc., priority 2022, published 2025)

Assays:
[1] = system: phosphorylation of threonine 202 (Thr202) and tyrosine 204 (Tyr204) of ERK; assay: ERK phosphorylation inhibitory effect by Cell ELISA in AsPC-1 (Test Example 2); type: cell-based, human; conditions: Homo sapiens, ASPC1, AsPC-1 cells, cultured overnight with compound; 1 μM trametinib taken as 0%
Protocol: Test Example 2: Evaluation of ERK Phosphorylation Inhibitory Effect on Human G12D Mutant KRAS-Positive Pancreatic Cancer Line AsPC-1
The ERK phosphorylation inhibitory effect of test compounds was evaluated by measuring phosphorylation of threonine 202 (Thr202) and tyrosine 204 (Tyr204) of ERK located downstream of the KRAS signal by Cell ELISA.
AsPC-1 cells were seeded on 384-well plates at 36 μL/well to give 2.0×10^4 cells per well. As for the cell culture conditions, RPMI 1640 medium containing 10% fetal bovine serum was used in the presence of 5% CO2 at 37° C.
The next day, the test compounds (10 points having final concentrations in the range of 10 μM to 0.3 nM), trametinib (MEK inhibitor) of a final concentration of 1 μM as positive control and DMSO, which was the solvent for the test compounds, as negative control were diluted 100-fold with a fresh medium and were added at 4 μL per well. The cells were cultured overnight. After culturing, 30% glyoxal solution (40% glyoxal [from Nacalai Tesque] was diluted with PBS) was quickly added at 30 μL per well, and the plate was allowed to stand for 60 minutes at room temperature to thus immobilize the cells. Then, the plate was centrifuged to remove the supernatant (using a centrifugal dehydrator machine, the supernatant was removed by the same method hereinafter), and 0.1% Triton X-100-containing PBS was added at 20 μL per well. After allowing to stand for 10 minutes at room temperature, the supernatant was removed, and the same operation was further repeated. Next, 0.5% SDS-containing PBS was added at 20 μL per well, and after allowing to stand at room temperature for 30 minutes, the supernatant was removed. Subsequently, blocking solution (Intercept Blocking Buffer) was added at 20 μL per well, and the plate was allowed to stand for 1 hour at room temperature. The supernatant was removed, and an ERK (Thr202/Tyr204) phosphorylation antibody (Phospho-p44/42 MAPK (Erk 1/2) (Thr202/Tyr204) (D13.14.4E) XP Rabbit mAb; from Cell Signaling Technology) diluted 2,500-fold with blocking solution was added at 15 μL per well as a primary antibody. The plates were allowed to stand at 4° C. overnight.
The next day, the supernatant was removed. 0.05% Tween-20 (from Thermo Fisher Scientific)-containing PBS was added at 50 μL per well, and the supernatant was removed to thus wash each well. The washing was performed three times in total. After washing, Goat anti-Rabbit IgG H&L (IRDye 800CW) diluted 1,000-fold with blocking solution was added at 15 μL per well as a secondary antibody, and the plates were allowed to stand for 1 hour at room temperature. The supernatant was removed, and each well was washed three times with 0.05% Tween-20-containing PBS in the same manner as after the primary antibody reaction. After removing the supernatant, the plates were dried with air at room temperature for 3 hours or more, and the 800-nm fluorescent signals were measured with Aerius.
With the signaling value at the time of addition of DMSO taken as 100% and with the signaling value at the time of addition of 1 μM trametinib taken as 0%, the 50% inhibitory concentration values (IC50) were calculated by Sigmoid-Emax nonlinear regression analysis.

[2] = system: human G12D mutant KRAS-positive pancreatic cancer line AsPC-1; assay: Non-anchorage-dependent cell growth inhibition, spheroid 3D cell culture (Test Example 3); type: cell-based; conditions: Homo sapiens, ASPC1, 144 h, AsPC-1 spheroid 3D culture, 6 days, CellTiter Glo 2.0
Protocol: Test Example 3: Evaluation of Non-Anchorage-Dependent Cell Growth Inhibitory Effect on Human G12D Mutant KRAS-Positive Pancreatic Cancer Line AsPC-1
The non-anchorage-dependent cell growth inhibitory effect of test compounds was evaluated by spheroid 3D cell culture.
AsPC-1 cells were seeded on low-cell-adhesive round bottom 384-well plates (PrimeSurface: from Sumitomo Bakelite) at 36 μL/well to give 5×10^2 cells per well. As for the cell culture conditions, RPMI 1640 medium containing 10% fetal bovine serum was used in the presence of 5% CO2 at 37° C.
The next day, the test compounds (10 or 6 points having final concentrations in the range of 10 μM to 0.3 nM) and DMSO, which was the solvent for the test compounds, as a negative control were diluted 100-fold with a fresh medium and were added at 4 μL per well. After culturing in the presence of 5% CO2 at 37° C. for 6 days, CellTiter Glo 2.0 (from Promega) was added at 20 μL per well. After stirring with a plate mixer (from FINEPCR) at room temperature for 1 hour, the luminescent signals were measured with ARVO X3 (from PerkinElmer).
With the signaling value in treatment with DMSO taken as 100% and with the signaling value in the medium alone without cells taken as 0%, the 50% inhibitory concentration values (IC50) were calculated by Sigmoid-Emax nonlinear regression analysis.

[3] = target: T1, KRAS G12D protein (Homo sapiens, UniProt P01116, G12D); assay: KRAS degradation activity by Cell ELISA in AsPC-1 (Test Example 1); type: cell-based; conditions: AsPC-1 cells, cultured overnight with compound, corrected with β-actin, read-out: DC50 (50% degradation concentration of the amounts of KRAS)
T1 construct: host or cells: AsPC-1
T1 sequence (P01116 1-188 isoform P01116-2 G12D): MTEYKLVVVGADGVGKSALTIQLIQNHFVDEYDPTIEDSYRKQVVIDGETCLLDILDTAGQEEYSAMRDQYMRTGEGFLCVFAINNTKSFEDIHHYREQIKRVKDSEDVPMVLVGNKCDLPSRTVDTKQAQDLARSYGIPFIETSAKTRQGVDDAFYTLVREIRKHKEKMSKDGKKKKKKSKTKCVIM
Protocol: Test Example 1: Evaluation of KRAS Degradation Activity on Human G12D Mutant KRAS-Positive Pancreatic Cancer Line AsPC-1 (CRL-1682; ATCC)
The KRAS degradation activity of test compounds was evaluated by measuring the expression levels of KRAS G12D protein by Cell ELISA.
AsPC-1 cells were seeded at 20 μL per well on 384-well plates (from Greiner bio-one) to give 2.0×10^4 cells per well. As for the cell culture conditions, RPMI 1640 (from Sigma-Aldrich) medium containing 10% fetal bovine serum (from Cytiva) was used in the presence of 5% CO2 at 37° C.
The next day, the test compounds (10 points having final concentrations in the range of 10 μM to 0.3 nM) and DMSO (from FUJIFILM Wako Pure Chemical Corporation), which was the solvent for the test compounds, as a negative control were diluted 500-fold with a fresh medium and were added at 20 μL per well. The cells were cultured overnight.
The next day, the culture supernatant was removed, and 4% paraformaldehyde phosphate buffer (from FUJIFILM Wako Pure Chemical Corporation) was added at 20 μL per well. The plates were allowed to stand for 30 minutes at room temperature to thus immobilize the cells. Then, the supernatant was removed, and 0.1% Triton X-100 (from Amersham Biosciences)-containing Phosphate buffered saline (PBS; from FUJIFILM Wako Pure Chemical Corporation) was added at 20 μL per well. After allowing to stand for 10 minutes at room temperature, the supernatant was removed. PBS was added at 25 μL per well, and the supernatant was removed to thus wash each well. The washing was performed twice in total. Next, the supernatant was removed, and 0.5% sodium dodecyl sulfate (SDS; from Invitrogen)-containing PBS was added at 20 μL per well. After allowing to stand at room temperature for 10 minutes, the supernatant was removed by a centrifugal operation (using a centrifugal dehydrator machine, the supernatant was removed by the same method hereinafter). PBS was added at 25 μL per well, and the supernatant was removed to thus wash each well. The washing was performed twice in total. The supernatant was removed, and blocking solution (Intercept Blocking Buffer; from Li-COR Biosciences) was added at 20 μL per well. After allowing to stand for 30 minutes at room temperature, the supernatant was removed, and a solution obtained by diluting anti-β-actin antibody (Anti-beta Actin antibody [mAbcam 8226]-Loading Control; from abcam) 1,000-fold with blocking solution and a solution obtained by diluting anti-Ras (G12D Mutant Specific) antibody (Ras (G12D Mutant Specific) (D8H7) Rabbit mAb #14429; from Cell Signaling Technology) and anti-β-actin antibody (from abcam) 1,000-fold with blocking solution were respectively added to positive control wells and the other wells at 20 μL per well as a primary antibody. The plate was allowed to stand overnight at 4° C.
The next day, the supernatant was removed. PBS was added at 25 μL per well, and the supernatant was removed to thus wash each well. The washing was performed twice in total. The supernatant was removed, and a solution obtained by diluting Donkey anti-Mouse IgG H&L (IRDye 680RD) (from Li-COR Biosciences) and Goat anti-Rabbit IgG H&L (IRDye 800CW) (from Li-COR Biosciences) 1,000-fold with blocking solution was added at 20 μL per well as a secondary antibody. After allowing to stand for 1 hour at room temperature, the supernatant was removed. PBS was added at 25 μL per well, and the supernatant was removed to thus wash each well. The washing was performed twice in total. After removing the supernatant, the plate was dried with air at room temperature for 2 hours or more, and the 700 nm and 800 nm fluorescent signals were measured with Aerius (from Li-COR Biosciences). […]

IC50 [1] [µM]	IC50 [2] [µM]	DC50 [3] [µM]	SMILES
0.095	0.05	0.091	Cc1ncsc1-c1ccc([C@H](CO)NC(=O)[C@@H]2C[C@@H](O)CN2C(=O)[C@H](C(C)C)n2cc(-c3ccc(COc4c(-c5c(C)c(F)cc6[nH]ncc56)c(C5CC5)cc5c(N(C)[C@H]6CCNC6)nc(O[C@@H](C)[C@H](C)O)nc45)cc3)nn2)cc1 (atropisomer, axis not shown) [Example 19]
0.016	0.007	0.047	Cc1ncsc1-c1ccc([C@H](CO)NC(=O)[C@@H]2C[C@@H](O)CN2C(=O)[C@H](C(C)C)n2cc(-c3ccc(COc4c(-c5c(C)c(F)cc6[nH]ncc56)c(C5CC5)cc5c(N[C@H]6CCNC6)nc(OC6CCOCC6)nc45)cc3)nn2)cc1 (atropisomer, axis not shown) [Example 3]
0.006	0.006	0.075	CCn1nccc1-c1ccc([C@H](CO)NC(=O)[C@@H]2C[C@@H](O)CN2C(=O)[C@H](C(C)C)n2cc(-c3ccc(COc4c(-c5c(C)c(F)cc6[nH]ncc56)c(C5CC5)cc5c(N(C)[C@H]6CCNC6)nc(OC[C@H](C)OC)nc45)cc3)nn2)nc1 (atropisomer, axis not shown) [Example 25]
0.013	0.012	0.031	Cc1ncsc1-c1ccc([C@H](CO)NC(=O)[C@@H]2C[C@@H](O)CN2C(=O)[C@H](C(C)C)n2cc(-c3ccc(COc4c(-c5c(C)c(F)cc6[nH]ncc56)c(C5CC5)cc5c(N(C)[C@H]6CCNC6)nc(OC[C@@H]6CCOC6)nc45)cc3)nn2)cc1 (atropisomer, axis not shown) [Example 23]
0.004	0.004	0.02	CO[C@@H](C)COc1nc(N(C)[C@H]2CCNC2)c2cc(C3CC3)c(-c3c(C)c(F)cc4[nH]ncc34)c(OCc3ccc(-c4cn([C@H](C(=O)N5C[C@H](O)C[C@H]5C(=O)N[C@@H](CO)c5ccc(-c6ocnc6C)cc5)C(C)C)nn4)cc3)c2n1 (atropisomer, axis not shown) [Example 14]
0.021	0.019	0.082	Cc1ncsc1-c1ccc([C@H](CO)NC(=O)[C@@H]2C[C@@H](O)CN2C(=O)[C@H](C(C)C)n2cc(-c3ccc(COc4c(-c5c(C)c(F)cc6[nH]ncc56)c(C5CC5)cc5c(N(C)[C@H]6CCNC6)nc(OCC(C)(F)F)nc45)cc3)nn2)cc1 (atropisomer, axis not shown) [Example 36]
–	0.095	–	Cc1ncsc1-c1ccc([C@H](CO)NC(=O)[C@@H]2C[C@@H](O)CN2C(=O)[C@H](C(C)C)n2cc(-c3ccc(COc4c(-c5c(C)c(F)cc6[nH]ncc56)c(C5CC5)nc5c(N6C[C@@H]7C[C@H]6CN7)nc(OC6CCOCC6)nc45)cc3)nn2)cc1 [Example 57, (4R)-1-[(2S)-2-(4-{4-[({6-cyclopropyl-4-[(1S,4S)-2,5-diazabicyclo[2.2.1]heptan-2-yl]-7-(6-fluoro-5-methyl-1H-indazol-4-yl)-2-[(oxan-4-yl)oxy]pyrido[3,2-d]pyrimidin-8-yl}oxy)methyl]phenyl}-1H-1,2,3-triazol-1-yl)-3-methylbutanoyl]-4-hydroxy-N-{(1R)-2-hydroxy-1-[4-(4-methyl-1,3-thiazol-5-yl)phenyl]ethyl}-L-prolinamide]
0.005	0.005	0.059	CO[C@@H](C)COc1cc(O[C@H]2CCNC2)c2cc(C3CC3)c(-c3c(C)c(F)cc4[nH]ncc34)c(OCc3ccc(-c4cn([C@H](C(=O)N5C[C@H](O)C[C@H]5C(=O)N[C@@H](CO)c5ccc(-c6scnc6C)cc5)C(C)C)nn4)cc3)c2n1 [Example 22]
0.032	0.01	0.025	COCC1(COc2nc(N(C)[C@H]3CCNC3)c3cc(C4CC4)c(-c4c(C)c(F)cc5[nH]ncc45)c(OCc4ccc(-c5cn([C@H](C(=O)N6C[C@H](O)C[C@H]6C(=O)N[C@@H](CO)c6ccc(-c7scnc7C)cc6)C(C)C)nn5)cc4)c3n2)CC1 (atropisomer, axis not shown) [Example 49]
0.006	0.004	0.091	Cc1ncsc1-c1ccc([C@H](CO)NC(=O)[C@@H]2C[C@@H](O)CN2C(=O)[C@H](C(C)C)n2cc(-c3ccc(COc4c(-c5c(C)c(F)cc6[nH]ncc56)c(C5CC5)cc5c(N(C)[C@H]6CCNC6)nc(OC[C@@H](C)C(F)F)nc45)cc3)nn2)cc1 [Example 42]
